Source: patent publication US11028079B2 (ConverGene LLC, priority 2015, dated 2021)

biological target: T1, BRD4 bromodomains (Homo sapiens, UniProt O60885); experiment: BROMOscan bromodomain competition binding assay (DiscoveRx); conditions: Kd from 11 compound concentrations ranging from 0 to 10 μM, read-out: BROMOscan Relative Activity
T1 construct: fused on or other part: T7 phage capsid protein (phage-display fusion; the phage DNA is read out by qPCR)
Procedure, shortened: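 Compounds in 0.1% DMSO/0.9% MEG competed with a solid-phase acetylated peptide for T7 phage-fused BRD4 bromodomains, with the retained bromodomain measured by qPCR.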

`Cc1noc(C)c1CNC(=O)c1nc(NCc2cccc(Cl)c2)c2cc(-c3c(C)noc3C)ccc2n1` [Example 259, 4-((3-chlorobenzyl)amino)-6-(3,5-dimethylisoxazol-4-yl)-N-((3,5-dimethylisoxazol-4-yl)methyl)quinazoline-2-carboxamide] and `Cc1nc(C)c(CNC(=O)c2nc(NCc3cccc(Cl)c3)c3cc(-c4c(C)noc4C)ccc3n2)s1` [Example 260, 4-((3-chlorobenzyl)amino)-6-(3,5-dimethylisoxazol-4-yl)-N-((2,4-dimethylthiazol-5-yl)methyl)quinazoline-2-carboxamide] cannot be ordered by Kd: < 500 nM for the first, < 500 nM for the second.

First: Cc1noc(C)c1-c1ccc2ncnc(N3CCC(C(=O)O)CC3)c2c1 [Example 261, 1-(6-(3,5-dimethylisoxazol-4-yl)quinazolin-4-yl)piperidine-4-carboxylic Acid]
Second: CNC(=O)C1CCN(c2ncnc3ccc(-c4c(C)noc4C)cc23)CC1 [Example 270, 1-(6-(3,5-dimethylisoxazol-4-yl)quinazolin-4-yl)-N-methylpiperidine-4-carboxamide]
The Kd of the first is higher: 500 to 5000 nM for the first, < 500 nM for the second. The second binds more tightly here.

`Cc1noc(C)c1-c1ccc2nc(-c3cnn(CC(C)(C)O)c3)nc(N3CCOC[C@@H]3c3ccccc3)c2c1` [Example 262, (S)-1-(4-(6-(3,5-dimethylisoxazol-4-yl)-4-(3-phenylmorpholino)quinazolin-2-yl)-1H-pyrazol-1-yl)-2-methylpropan-2-ol] and `Cc1noc(C)c1-c1ccc2nc(-c3cnn(CC(C)(C)O)c3)nc(N3CCOC[C@H]3c3ccccc3)c2c1` [Example 263, (R)-1-(4-(6-(3,5-dimethylisoxazol-4-yl)-4-(3-phenylmorpholino)quinazolin-2-yl)-1H-pyrazol-1-yl)-2-methylpropan-2-ol] cannot be ordered by Kd: < 500 nM for the first, < 500 nM for the second.

`Cc1noc(C)c1-c1ccc2ncnc(N3CCOCC3c3ccccc3)c2c1` (stereo not shown) [Example 264, 4-(6-(3,5-dimethylisoxazol-4-yl)quinazolin-4-yl)-3-phenylmorpholine] and `Cc1noc(C)c1-c1ccc2nc(N3CCc4[nH]ncc4C3)nc(N3CCOC[C@@H]3c3ccccc3)c2c1` [Example 282, (S)-4-(6-(3,5-dimethylisoxazol-4-yl)-2-(1,4,6,7-tetrahydro-5H-pyrazolo[4,3-c]pyridin-5-yl)quinazolin-4-yl)-3-phenylmorpholine] cannot be ordered by Kd: < 500 nM for the first, < 500 nM for the second.

`CNC(=O)C1CCN(c2nc(N3CCN(CCN(C)C)CC3)nc3ccc(-c4c(C)noc4C)cc23)CC1` [Example 267, 1-(2-(4-(2-(dimethylamino)ethyl)piperazin-1-yl)-6-(3,5-dimethylisoxazol-4-yl)quinazolin-4-yl)-N-methylpiperidine-4-carboxamide] and `Cc1noc(C)c1-c1ccc2nc(N3CCN(S(C)(=O)=O)CC3)nc(N3CCOC[C@H]3c3ccccc3)c2c1` [Example 268, (R)-4-(6-(3,5-dimethylisoxazol-4-yl)-2-(4-(methylsulfonyl)piperazin-1-yl)quinazolin-4-yl)-3-phenylmorpholine] cannot be ordered by Kd: < 500 nM for the first, < 500 nM for the second.

`Cc1noc(C)c1-c1ccc2nc(N3CCN(S(C)(=O)=O)CC3)nc(N3CCOC[C@@H]3c3ccccc3)c2c1` [Example 269, (S)-4-(6-(3,5-dimethylisoxazol-4-yl)-2-(4-(methylsulfonyl)piperazin-1-yl)quinazolin-4-yl)-3-phenylmorpholine] and `Cc1noc(C)c1-c1ccc2nc(N3CCc4c(cnn4C)C3)nc(N3CCOC[C@@H]3c3ccccc3)c2c1` [Example 289, (S)-4-(6-(3,5-dimethylisoxazol-4-yl)-2-(1-methyl-1,4,6,7-tetrahydro-5H-pyrazolo[4,3-c]pyridin-5-yl)quinazolin-4-yl)-3-phenylmorpholine] cannot be ordered by Kd: < 500 nM for the first, < 500 nM for the second.

`Cc1noc(C)c1-c1ccc2nc(C(=O)NC3CS(=O)(=O)C3)nc(NCc3cccc(Cl)c3)c2c1` [Example 271, 4-((3-chlorobenzyl)amino)-6-(3,5-dimethylisoxazol-4-yl)-N-(1,1-dioxidothietan-3-yl)quinazoline-2-carboxamide] and `Cc1noc(C)c1-c1ccc2nc(C(=O)N3CCc4[nH]ncc4C3)nc(NCc3cccc(Cl)c3)c2c1` [Example 287, (4-((3-chlorobenzyl)amino)-6-(3,5-dimethylisoxazol-4-yl)quinazolin-2-yl)(1,4,6,7-tetrahydro-5H-pyrazolo[4,3-c]pyridin-5-yl)methanone] cannot be ordered by Kd: < 500 nM for the first, < 500 nM for the second.

`CNC(=O)Cn1cc(-c2nc(N3CCOC[C@@H]3c3ccccc3)c3cc(-c4c(C)noc4C)ccc3n2)cn1` [Example 272, (S)-2-(4-(6-(3,5-dimethylisoxazol-4-yl)-4-(3-phenylmorpholino)quinazolin-2-yl)-1H-pyrazol-1-yl)-N-methylacetamide] and `Cc1noc(C)c1-c1ccc2nc(C(=O)NCc3cncn3C)nc(N3CCOC[C@@H]3c3ccccc3)c2c1` [Example 279, (S)-6-(3,5-dimethylisoxazol-4-yl)-N-((1-methyl-1H-imidazol-5-yl)methyl)-4-(3-phenylmorpholino)quinazoline-2-carboxamide] cannot be ordered by Kd: < 500 nM for the first, < 500 nM for the second.

`Cc1noc(C)c1-c1ccc2nc(C(=O)N[C@H]3CC[C@H](O)CC3)nc(N3CCOC[C@@H]3c3ccccc3)c2c1` [Example 273, 6-(3,5-dimethylisoxazol-4-yl)-N-((trans)-4-hydroxycyclohexyl)-4-((S)-3-phenylmorpholino)quinazoline-2-carboxamide] and `Cc1noc(C)c1-c1ccc2nc(C(=O)NC3CCN(C)CC3)nc(N3CCOC[C@@H]3c3ccccc3)c2c1` [Example 280, (S)-6-(3,5-dimethylisoxazol-4-yl)-N-(1-methylpiperidin-4-yl)-4-(3-phenylmorpholino)quinazoline-2-carboxamide] cannot be ordered by Kd: < 500 nM for the first, < 500 nM for the second.

First: Cc1noc(C)c1-c1ccc2nc(C(=O)N[C@H]3CC[C@H](O)CC3)cc(NCc3cccc(Cl)c3)c2c1 [Example 274, 4-((3-chlorobenzyl)amino)-6-(3,5-dimethylisoxazol-4-yl)-N-((trans)-4-hydroxycyclohexyl)quinoline-2-carboxamide]
Second: Cc1noc(C)c1-c1ccc2nc(C(=O)N3CCc4[nH]ncc4C3)cc(NCc3cccc(Cl)c3)c2c1 [Example 288, (4-((3-chlorobenzyl)amino)-6-(3,5-dimethylisoxazol-4-yl)quinolin-2-yl)(1,4,6,7-tetrahydro-5H-pyrazolo[4,3-c]pyridin-5-yl)methanone]
The Kd of the first is lower: < 500 nM for the first, 500 to 5000 nM for the second. The first binds more tightly here.

`Cc1noc(C)c1-c1ccc2nc(C(=O)NC3CCS(=O)(=O)CC3)nc(N3CCOC[C@@H]3c3ccccc3)c2c1` [Example 275, (S)-6-(3,5-dimethylisoxazol-4-yl)-N-(1,1-dioxidotetrahydro-2H-thiopyran-4-yl)-4-(3-phenylmorpholino)quinazoline-2-carboxamide] and `Cc1noc(C)c1-c1ccc2nc(C(=O)NC3CN(C)C3)nc(N3CCOC[C@@H]3c3ccccc3)c2c1` [Example 277, (S)-6-(3,5-dimethylisoxazol-4-yl)-N-(1-methylazetidin-3-yl)-4-(3-phenylmorpholino)quinazoline-2-carboxamide] cannot be ordered by Kd: < 500 nM for the first, < 500 nM for the second.

`Cc1noc(C)c1-c1ccc2nc(C(=O)N3CCc4c(cnn4C)C3)nc(N3CCOC[C@@H]3c3ccccc3)c2c1` [Example 276, (S)-(6-(3,5-dimethylisoxazol-4-yl)-4-(3-phenylmorpholino)quinazolin-2-yl)(1-methyl-1,4,6,7-tetrahydro-5H-pyrazolo[4,3-c]pyridin-5-yl)methanone] and `Cc1noc(C)c1-c1ccc2nc(C(=O)N3CCc4[nH]ncc4C3)nc(N3CCOC[C@@H]3c3ccccc3)c2c1` [Example 285, (S)-(6-(3,5-dimethylisoxazol-4-yl)-4-(3-phenylmorpholino)quinazolin-2-yl)(1,4,6,7-tetrahydro-5H-pyrazolo[4,3-c]pyridin-5-yl)methanone] fall in the same range of Kd: 500 to 5000 nM for the first, 500 to 5000 nM for the second.

`Cc1noc(C)c1-c1ccc2nc(N3CCc4c(cnn4C)C3)nc(NCc3cccc(Cl)c3)c2c1` [Example 278, N-(3-chlorobenzyl)-6-(3,5-dimethylisoxazol-4-yl)-2-(1-methyl-1,4,6,7-tetrahydro-5H-pyrazolo[4,3-c]pyridin-5-yl)quinazolin-4-amine] and `Cc1noc(C)c1-c1ccc2nc(N3CCc4[nH]ncc4C3)nc(NCc3cccc(Cl)c3)c2c1` [Example 290, N-(3-chlorobenzyl)-6-(3,5-dimethylisoxazol-4-yl)-2-(1,4,6,7-tetrahydro-5H-pyrazolo[4,3-c]pyridin-5-yl)quinazolin-4-amine] fall in the same range of Kd: 500 to 5000 nM for the first, 500 to 5000 nM for the second.

`Cc1nn(C)cc1CNC(=O)c1nc(N2CCOC[C@@H]2c2ccccc2)c2cc(-c3c(C)noc3C)ccc2n1` [Example 281, (S)—N-((1,3-dimethyl-1H-pyrazol-4-yl)methyl)-6-(3,5-dimethylisoxazol-4-yl)-4-(3-phenylmorpholino)quinazoline-2-carboxamide] and `Cc1noc(C)c1-c1ccc2nc(C(=O)NCC3CN(C)C3)nc(N3CCOC[C@@H]3c3ccccc3)c2c1` [Example 283, (S)-6-(3,5-dimethylisoxazol-4-yl)-N-((1-methylazetidin-3-yl)methyl)-4-(3-phenylmorpholino)quinazoline-2-carboxamide] cannot be ordered by Kd: < 500 nM for the first, < 500 nM for the second.

Compared with `Cc1noc(C)c1-c1ccc2nc(C(=O)N3CCc4[nH]ncc4C3)nc(NCc3cncc(Cl)c3)c2c1` [Example 284, (4-(((5-chloropyridin-3-yl)methyl)amino)-6-(3,5-dimethylisoxazol-4-yl)quinazolin-2-yl)(1,4,6,7-tetrahydro-5H-pyrazolo[4,3-c]pyridin-5-yl)methanone], `Cc1noc(C)c1-c1ccc2nc(C(=O)N3CCc4[nH]ncc4C3)nc(NC3(c4cccc(Cl)c4)CC3)c2c1` [Example 286, (4-((1-(3-chlorophenyl)cyclopropyl)amino)-6-(3,5-dimethylisoxazol-4-yl)quinazolin-2-yl)(1,4,6,7-tetrahydro-5H-pyrazolo[4,3-c]pyridin-5-yl)methanone] is lower in Kd: 500 to 5000 nM for the first, < 500 nM for the second.

In the case of `Cc1noc(C)c1-c1ccc2nc(-c3cnn(CC(C)(C)O)c3)nc(N3CCNC[C@@H]3c3ccccc3)c2c1` [Example 291, (S)-1-(4-(6-(3,5-dimethylisoxazol-4-yl)-4-(2-phenylpiperazin-1-yl)quinazolin-2-yl)-1H-pyrazol-1-yl)-2-methylpropan-2-ol], the Kd is reported as < 500 nM.
